Data taken from EP0049683A2, “Imidazo-rifamycines, process for their preparation, pharmaceutical preparations containing them and their use” (CIBA-GEIGY AG, priority 1980, dated 1982).
≈ marks a conversion by molar mass, not a printed value.

Legend:
[1] = assay type: physicochemical
Procedure: Eine Lösung von 0,5 g 3-Dimethylaminomethylenamino-Rifamycin S in 5 ml Methanol wird mit 2 ml einer 10 % (G/V) wässerigen Natriumbicarbonatlösung und 5 ml einer 10 % (G/V) Lösung von K4[Fe(CN)6] Kaliumferrocyanid) in Wasser versetzt, die Lösung 3 Minuten intensiv gerührt und mit je 20 ml Wasser und Chloroform verdünnt. Die Chloroformphase wird abgetrennt und die wässerige Phase noch zweimal mit Chloroform extrahiert. Die vereinigten Chloroformextrakte werden getrocknet und eingedampft, wodurch 3-Dimethylaminomethylenamino-Rifamycin SV als gelbes Pulver resultiert.

[2] = assay type: physicochemical; remark: listed apart in the source
Procedure: Eine unter Stickstoff gerührte Suspension von 15,50 g 4-Dimethylamino-imidazolo[4,5-c]rifamycin SV (1) in 150 ml Wasser wird tropfenweise mit 20,0 ml einer 1-N-wässrigen Natriumhydroxid-Lösung (0,987 Aequivalent) versetzt. Die resultierende gelbgefärbte Lösung wird filtriert und das Filtrat der Gefriertrocknung unterworfen. […] Für C40H51N4O11Na (MG 786,85) berechnet 2,92% Na; gefunden 2,87% Na.
Eine gerührte Suspension von 8,75 g 4-(4-Isobutylpiperazinyl)-imidazolo[4,5-c]rifamycin SV (4) in 165 ml Wasser wird mit 10,0 ml 1-normaler wässriger Salzsäure (0,985 Aequivalent) versetzt. Das Gemisch wird filtriert, und das Filtrat der Gefriertrocknung unterworfen. Das erhaltene 4-(4-Isobutylpiperazinyl)-imidazolo[4,5-c]rifamycin SV-Hydrochlorid bildet ein wasserlösliches, gelbes amorphes Pulver. Für C46H63N5O11 · HC1 (898,49) berechnet: 3,95% Cl, gefunden: 4,08% Cl.

[3] = test system: Mycobacterium tuberculosis; assay: Agar dilution MIC in DST agar (Ericsson and Sherris); assay type: cell-based; details: in vitro; for MIC: Mycobacterium tuberculosis, read-out: MIC Myc. tub.
[4] = test system: Staphylococcus aureus; assay: In vitro antibacterial activity against gram-positive cocci; assay type: cell-based; details: at (at or below) the lowest limit of the tested concentration range, 0,005 y/ml
Excerpt: (§1) Die neuen erfindungsgemässen Verbindungen der Formel I zeichnen sich vor allem durch ihre wertvollen pharmakologischen Eigenschaften aus: so besitzen sie gemäss den Resultaten in vitro antibiotische, insbesondere antibakterielle Eigenschaften, wie z.B. einerseits gegen grammpositive Kokken, wie Staphylococcus aureus, (im getesteten Konzentrationsbereich 0,005 bis 128 y/ml),andererseits gegen grammnegative Stäbchenbakterien, wie Enterobacteriaceae, z.B. Escherichia coli, Pseudomonas aeruginosa und Proteus morganii (im getesteten Konzentrationsbereich von 1 bis 64 y/ml), sowie gegen Mycobacterium tuberculosis (im getesteten Konzentrationsbereich von 0,48 bis 1,9 y/ml). […] (Für die Testresultate siehe auch Tabelle -1.)
(§2) Auch die neuen erfindungsgemässen Verbindungen der Formeln V und VI zeichnen sich durch analoge wertvolle pharmakologische Eigenschaften aus, d.h. sie besitzen gemäss den Resultaten in vitro antibiotische, insbesondere antibakterielle Eigenschaften, die sich bezüglich des Anwendungsbereichs sowie der getesteten effektiven Konzentrationen den Verbindungen der Formel I praktisch gleichen. […] (Für die Testresultate siehe auch Tabelle 2.)

[5] = test system: Escherichia coli 2018; assay: Agar dilution MIC in DST agar (Ericsson and Sherris); assay type: cell-based; details: for MIC: Escherichia coli, 2018, in vitro, read-out: MIC Esch. 2018
In short: (§3)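 MIC (µg/ml) by agar dilution per Ericsson and Sherris in DST agar; lowest concentration still inhibiting growth of the test organism.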

[6] = test system: Proteus morganii 2359; assay: as above; assay type: cell-based; details: for MIC: Morganella morganii, 2359, in vitro, read-out: MIC Prot. 2359
In short: as §3

[7] = test system: Staphylococcus aureus 2999; assay: as above; assay type: cell-based; details: for MIC: Staphylococcus aureus, 2999, in vitro, read-out: MIC Staph. 2999
In short: as §3

[8] = test system: Proteus morganii 1518; assay: as above; assay type: cell-based; details: for MIC: Morganella morganii, 1518, in vitro, read-out: MIC Prot. 1518
In short: as §3

[9] = test system: Staphylococcus aureus 10B; assay: as above; assay type: cell-based; details: in vitro; for MIC: Staphylococcus aureus, 10B, read-out: MIC Staph. 10B
In short: as §3

[10] = test system: Pseudomonas aeruginosa K 799/61; assay: as above; assay type: cell-based; details: for MIC: Pseudomonas aeruginosa, K799/61, read-out: MIC Pseu. 799
In short: as §3

[11] = test system: Salmonella Typhimurium 277; assay: as above; assay type: cell-based; details: in vitro; for MIC: Salmonella enterica, TYPHIMURIUM, read-out: MIC Salm. 277
In short: as §3

[12] = test system: Escherichia coli 205; assay: as above; assay type: cell-based; details: for MIC: Escherichia coli, 205, in vitro, read-out: MIC Esch. 205
In short: as §3

[13] = test system: Enterobacteriaceae, z.B. Escherichia coli, Pseudomonas aeruginosa und Proteus morganii; assay: In vitro antibacterial activity against gram-negative rods; assay type: cell-based; details: within the stated concentration range, 1 bis 64 y/ml
Excerpt: as §1, §2

Compound	MIC [3]	Hemmwirkung auf Staphylococcus aureus [4]	MIC [5]	MIC [6]	MIC [7]	MIC [8]	MIC [9]	MIC [10]	MIC [11]	MIC [12]	Hemmung der Enterobacterien [13]	also measured
3-Dimethylaminomethylenamino-Rifamycin SV [Beispiel 78A]												Stabilität beim Stehen in einer Lösung [1]: sehr schnell wieder zum Chinon durch Luftsauerstoffoxidation umgewandelt
COC1C=COC2(C)Oc3c(C)c(O)c4c(O)c(c5[nH]c(N6CCN(CC(C)C)CC6)nc5c4c3C2=O)NC(=O)C(C)=CC=CC(C)C(O)C(C)C(O)C(C)C(OC(C)=O)C1C.Cl (centres unmarked) [4-(4-Isobutylpiperazinyl)-imidazolo[4,5-c]rifamycin SV-Hydrochlorid]												Löslichkeit in Wasser [2]: wasserlösliches
COC1C=COC2(C)Oc3c(C)c(O)c4c(O)c(c5nc(N6CCOCC6)[nH]c5c4c3C2=O)NC(=O)C(C)=CC=CC(C)C(O)C(C)C(O)C(C)C(OC(C)=O)C1C (centres unmarked) [Verbindung 2, 4-Morpholino-imidazolo[4,5-c]rifamycin SV]	1.9 µg/mL (≈ 2.35 µM)	deutliche Hemmwirkung	16 µg/mL (≈ 19.8 µM)	4 µg/mL (≈ 4.96 µM)	0.005 µg/mL (≈ 0.0062 µM)	4 µg/mL (≈ 4.96 µM)	0.01 µg/mL (≈ 0.0124 µM)	8 µg/mL (≈ 9.91 µM)	32 µg/mL (≈ 39.7 µM)	16 µg/mL (≈ 19.8 µM)	wirksam hemmen	
4-Dimethylamino-imidazolo[4,5-c]rifamycin SV-Natriumsalz												Löslichkeit in Wasser [2]: in Wasser klar lösliches
COC1C=COC2(C)Oc3c(C)c(O)c4c(O)c(c5nc(N6CCN(CC(C)C)CC6)[nH]c5c4c3C2=O)NC(=O)C(C)=CC=CC(C)C(O)C(C)C(O)C(C)C(OC(C)=O)C1C (centres unmarked) [Verbindung 4, 4-(4-Isobutylpiperazinyl)-imidazolo[4,5-c]rifamycin SV]	0.97 µg/mL (≈ 1.13 µM)	deutliche Hemmwirkung	4 µg/mL (≈ 4.64 µM)	4 µg/mL (≈ 4.64 µM)	0.005 µg/mL (≈ 0.0058 µM)	4 µg/mL (≈ 4.64 µM)	0.005 µg/mL (≈ 0.0058 µM)	8 µg/mL (≈ 9.28 µM)	8 µg/mL (≈ 9.28 µM)	4 µg/mL (≈ 4.64 µM)	wirksam hemmen	
4-Pyrrolidinyl-imidazolo[4,5-c]rifamycin SV [Verbindung 19]		deutliche Hemmwirkung									wirksam hemmen	MIC Myc. tub. [3]: 0.48 µg/mL; MIC Esch. 2018 ([5]; in vitro): 4 µg/mL; MIC Prot. 2359 ([6]; in vitro): 4 µg/mL; MIC Staph. 2999 ([7]; in vitro): 0.005 µg/mL; MIC Prot. 1518 ([8]; in vitro): 4 µg/mL; MIC Staph. 10B [9]: 0.005 µg/mL; MIC Pseu. 799 ([10]; in vitro, agar dilution, DST agar): 8 µg/mL; MIC Salm. 277 [11]: 8 µg/mL; MIC Esch. 205 ([12]; in vitro): 2 µg/mL
COC1C=COC2(C)Oc3c(C)c(O)c4c(O)c(c5nc(N(C)C)[nH]c5c4c3C2=O)NC(=O)C(C)=CC=CC(C)C(O)C(C)C(O)C(C)C(OC(C)=O)C1C (centres unmarked) [Verbindung 1, 4-Dimethylamino-imidazolo[4,5-c]rifamycin SV]	0.97 µg/mL (≈ 1.27 µM)	deutliche Hemmwirkung	4 µg/mL (≈ 5.23 µM)	8 µg/mL (≈ 10.5 µM)	0.005 µg/mL (≈ 0.00654 µM)	4 µg/mL (≈ 5.23 µM)	0.005 µg/mL (≈ 0.00654 µM)	2 µg/mL (≈ 2.61 µM)	16 µg/mL (≈ 20.9 µM)	8 µg/mL (≈ 10.5 µM)	wirksam hemmen	
